This assay concerns Plasmodium berghei. Put plainly: Luciferase/luciferin-expressing antifolate-resistant parasites were used to infect a culture of HepG2 cells that were pre-incubated with compounds. Infected hepatocytes emit light due to the luciferase reaction. Assay results are presented as the percent inhibition of light emission compared to control. […]. In kind it is functional. The conditions noted are these: sporozoite; for IC50: read-out: LUCIFERASE INFECTION ASSAY - IC50; for IC90: read-out: LUCIFERASE INFECTION ASSAY - IC90.

With `O=C(OCC(=O)N(CCc1ccccc1)Cc1ccccc1)c1ccccc1NCCO`, the IC50 was over 10 µM and the IC90 is over 10 µM.
Regarding `O=C(CN1C(=O)CCOc2ccccc21)N1CCN(C(=O)C2COc3ccccc3O2)CC1` (stereo not drawn), the IC50 stood at 3.76 µM and the IC90 turned out to be 8.99 µM.
The like results for `Cc1nc(-c2ccsc2)sc1C(=O)Nc1nc(-c2ccc(NS(C)(=O)=O)cc2)cs1` were, in that order, 5.84 µM and 8.82 µM.
With `COc1cc(NC(=O)Cc2c(F)cccc2Cl)cc(OC)c1OC`, the IC50 was over 10 µM and the IC90 is over 10 µM.
As for `O=C(NCCC1=CCCCC1)c1ccccc1CN1C(=O)CNC1=O`, the IC50 was over 10 µM and the IC90 was over 10 µM.
As to `CCc1nnc(NC(=O)CCSCc2cn3ccccc3n2)s1`, the IC50 was over 10 µM and the IC90 is over 10 µM.
For the compound `Cc1oc(=S)n(CN2CCN(S(=O)(=O)c3ccc4ccccc4c3)CC2)c1C`, the IC50 was over 10 µM and the IC90 is over 10 µM.
Turning to `O=C(COc1ccccc1C(=O)NCc1ccccc1)NC(c1ccc(F)cc1)c1cccs1` (stereo not drawn), the IC50 turned out to be 8.41 µM and the IC90 was over 10 µM.
For the compound `CCOc1cc2c(cc1/C=C/C(=O)c1ccc3[nH]c(=O)[nH]c3c1)OC(C)C2` (stereo not drawn), the IC50 was over 10 µM and the IC90 was over 10 µM.
For the compound `COCCN(Cc1nc(=O)c2ccccc2[nH]1)C(=O)c1cc(C(C)(C)C)cc(C(C)(C)C)c1O`, the IC50 was over 10 µM and the IC90 is over 10 µM.
For `O=C(c1ccccc1)c1ccc(OCc2coc(-c3ccccc3)n2)cc1`, the IC50 is over 10 µM and the IC90 was over 10 µM.
Regarding `N#Cc1ccnc(N2CCN(c3nc(CSc4ccccc4)nc4sc5c(c34)CCC5)CC2)c1`, the IC50 was over 10 µM and the IC90 was over 10 µM.
For `CSCc1nc(=O)c2c(C)c(C(=O)NN3C(=O)NC(C)(c4ccccc4)C3=O)sc2[nH]1` (stereo not drawn), the IC50 was over 10 µM and the IC90 is over 10 µM.
Turning to `CC(Sc1nncs1)C(=O)Nc1cc([N+](=O)[O-])ccc1Cl` (stereo not drawn), the IC50 is over 10 µM and the IC90 was over 10 µM.
Turning to `Cc1ccc(-c2c(C)sc3[nH]c(CN(C)CC(=O)Nc4cccc(C)c4C)nc(=O)c23)cc1`, the IC50 was over 10 µM and the IC90 is over 10 µM.
With `CCOc1ncccc1C(=O)N(C)Cc1cn(-c2ccccc2)nc1-c1ccccc1`, the IC50 stood at 4.36 µM and the IC90 was found to be 5.34 µM.
As for `Cc1ccc(S(=O)(=O)N2CCCC(C(=O)NNC(=O)CCNC(=O)/C=C/c3ccccc3)C2)cc1` (stereo not drawn), the IC50 was over 10 µM and the IC90 is over 10 µM.
On to `CCS(=O)(=O)c1ccc(O)c(NC(=O)Cc2csc(-c3ccsc3)n2)c1`, for which the IC50 is over 10 µM and the IC90 was over 10 µM.
For the compound `O=C(CNc1ccccc1-c1ccccc1)Nc1cc(Cl)ccc1F`, the IC50 was over 10 µM and the IC90 is over 10 µM.
On to `O=C(Nc1ccc(-c2csc(N3CCOCC3)n2)cc1)c1ccc(Br)c([N+](=O)[O-])c1`, for which the IC50 was over 10 µM and the IC90 was over 10 µM.
`CN(CC(=O)Nc1ccc(Cl)c(S(=O)(=O)N2CCOCC2)c1)C(=O)C1CCCO1` (stereo not drawn): the IC50 is over 10 µM and the IC90 is over 10 µM.
Turning to `Cc1cc(=O)n2nc(-c3ccccc3)cc2n1CC(=O)Nc1cc(Cl)ccc1N1CCCCC1`, the IC50 worked out at 3.43 µM and the IC90 is 4.37 µM.
For `Cc1sc2ncnc(SCC(=O)NC3CCN(Cc4ccccc4)C3)c2c1C` (stereo not drawn), the concentration for half-maximal inhibition (IC50) is over 10 µM and the IC90 is over 10 µM.
Take `Cc1ccccc1C(C)NC(=O)c1c[nH]c(=S)n1-c1ccccc1` (stereo not drawn): the IC50 is over 10 µM and the 90% effect concentration (IC90) is over 10 µM.
For the compound `COCCn1cnc2c1c(=O)n(CC(=O)NC1(C#N)CCCCCC1)c(=O)n2CC(C)C`, the IC50 is over 10 µM and the IC90 was over 10 µM.
As for `Cc1ccc2nc(CNc3cc(Cl)ccc3N3CCCC3)cc(=O)n2c1`, the IC50 was over 10 µM and the IC90 was over 10 µM.
Consider `Cc1ccc(CN(CCc2ccccc2)Cn2nc(CCC(N)=O)n(C3CC3)c2=S)s1`, for which the half-inhibitory concentration (IC50) was over 10 µM and the IC90 is over 10 µM.
Take `Cc1ccc(-c2n[nH]c(=S)n2CCC(=O)NC(C)c2ccc(F)c(F)c2)cc1` (stereo not drawn): the IC50 is over 10 µM and the IC90 is over 10 µM.
Regarding `CC(C)C(Nc1ccc(S(=O)(=O)N2CCOCC2)cc1[N+](=O)[O-])c1nc2ccccc2[nH]1` (stereo not drawn), the IC50 was determined as 9.46 µM and the IC90 was over 10 µM.
As to `CC(C)=CC(=O)NC(c1ccccc1)c1ccc(Cl)cc1` (stereo not drawn), the IC50 is over 10 µM and the IC90 was over 10 µM.
In the case of `O=C(Nc1ccc2c(c1)OCO2)C1CCN(Cn2nc3n(c2=O)CCCCC3)CC1`, the IC50 was over 10 µM and the IC90 is over 10 µM.
Take `COc1ccccc1-n1nnnc1SC(C)C(=O)Nc1ccc2[nH]c(=O)[nH]c2c1` (stereo not drawn): the IC50 is over 10 µM and the IC90 was over 10 µM.
For the compound `Cc1cc(-c2csc(Cc3ccccc3)n2)c(C)n1NC(=O)c1nn(C)c(=O)c2ccccc12`, the IC50 was over 10 µM and the IC90 was over 10 µM.
On to `CN(c1ccccc1)S(=O)(=O)c1cccc(C(=O)Nc2ccc(-c3cn4c(n3)CCC4)cc2)c1`, for which the IC50 is over 10 µM and the IC90 was over 10 µM.
For the compound `CCN(CC)C(=O)CN1CCN(C(=O)c2ccc(S(=O)(=O)N3CCOCC3)cc2)CC1`, the IC50 was over 10 µM and the IC90 was over 10 µM.
`COC(=O)c1cccnc1Nc1ccc(NS(=O)(=O)c2ccc(F)c(F)c2)cc1`: the IC50 was over 10 µM and the IC90 was over 10 µM.
On to `Cc1cc(N2CCN(C)CC2)ccc1NC(=O)c1cnc2c(c1)c(=O)n(C)c(=O)n2C`, for which the IC50 is over 10 µM and the IC90 was over 10 µM.
Regarding `CN(C)S(=O)(=O)c1ccc2nnn(OCCCOc3ccc(C(C)(C)C)cc3)c2c1`, the IC50 is over 10 µM and the IC90 is over 10 µM.
Consider `C=CCNc1nnc(SCC(=O)Nc2c(Cl)cc(Cl)cc2C(=O)O)s1`, for which the IC50 is over 10 µM and the IC90 is over 10 µM.
Consider `CC(=O)c1sc(-c2ccc(OCC(=O)Nc3ccc(S(=O)(=O)N4CCCC4)cc3)cc2)nc1C`, for which the IC50 is over 10 µM and the 90% effect concentration (IC90) is over 10 µM.
`COc1ccc(C(C)NC(=O)CCCN2C(=O)c3ccccc3C2=O)cc1F` (stereo not drawn): the IC50 is over 10 µM and the IC90 was over 10 µM.
`O=C(Nc1ccc(-c2nccs2)cc1)c1occc1COc1ccccc1`: the IC50 was over 10 µM and the IC90 is over 10 µM.
`CCc1ccc(CNCc2ccc3c(c2)OCO3)cc1`: the IC50 is over 12.3 µM and the IC90 is over 12.3 µM.
For the compound `Cc1c(C(=O)Nc2cccc(S(=O)(=O)N(C)C)c2)cnn1-c1ccc(=O)[nH]n1`, the IC50 is over 10 µM and the IC90 was over 10 µM.
For the compound `CCn1c(SCCC(=O)Nc2cc(C)on2)nnc1-c1ccc(C(C)(C)C)cc1`, the IC50 was over 10 µM and the IC90 is over 10 µM.
Take `CC(=O)N(c1nc(/C=C/C(=O)c2ccc(F)c(F)c2)cs1)c1c(C)cccc1C`: the IC50 was over 10 µM and the IC90 is over 10 µM.
`Cc1ccc(/C=C(\C#N)c2nc(=O)c3c4c(sc3[nH]2)CC(C)CC4)o1` (stereo not drawn): the IC50 is over 10 µM and the IC90 is over 10 µM.
`CCCCCCc1ccc(-c2csc(NC(=O)CSc3nnc(C(F)(F)F)n3C)n2)cc1`: the 50% inhibitory concentration (IC50) is over 10 µM and the IC90 is over 10 µM.
On to `CNC(=O)c1cccc(NC(=O)c2cc(-c3ccco3)nc3c2cnn3C(C)C)c1`, for which the IC50 was over 10 µM and the concentration for an effect of 90% (IC90) was over 10 µM.
